Results on 10 compounds are retold here after patent US20250195511A1, “INDAZOLE DERIVATIVES USEFUL AS INHIBITORS OF NOD-LIKE RECEPTOR PROTEIN 3” (Merck Sharp & Dohme LLC, priority 2023, published 2025).

The test system of this experiment is NLRP3 inflammasome. As to the kind of experiment: NLRP3 inflammasome activation: ASC-SPECK formation in gramicidin-stimulated THP-1 cells. The format is cell-based. The following applies: inhibition of ASC SPECK formation; PMA-treated human monocytic THP-1 cells, compound 1 h before 12.5 μg/ml gramicidin, 3-hour treatment. The text has this:
Activation of the canonical NLRP3 inflammasome requires two steps, priming and activation. A priming signal such as a pathogen activated molecular patterns (PAMPs) or danger-activated molecular patterns (DAMPs) are recognized by Toll-like receptors leads to nuclear factor kappa B (NF-KB)-mediated signaling. […] The second step is activation which induces oligomerization of NLRP3 and subsequent assembly of NLRP3, apoptosis-associated speck-like protein containing a CARD (ASC), and procaspase-1 into an inflammasome complex. This triggers the transformation of procaspase-1 to caspase-1, and the production and secretion of mature IL-1β and IL-18 (Kim et al., J. Inflamm. 2015, 12, 41; Ozaki et al., J. Inflamm. Res. 2015, 8, 15-27; Rabeony et al., Eur. J. Immunol. 2015, 45, 2847). During inflammasome complex assembly, the oligomerization of NLRP3 triggers the nucleation of ASC and an event commonly referred to as “ASC SPECK” formation, as it is identified in the cell as a discrete puncta within the cell after staining and visualization of ASC using common immunocytochemical methods.
The ability of compounds to inhibit NLRP3 inflammasome activation was determined in vitro by monitoring formation of the ASC-SPECK in human monocytic THP-1 cells after stimulation. THP-1 cells (ATCC catalog #TIB-202) were maintained in complete growth media containing Roswell Park Memorial Institute RPMI (ATCC catalog #30-2001), 10% heat inactivated fetal bovine serum, 1× penicillin/streptomycin and 0.05 mM 2-mercaptoethanol. At the start of the assay, undifferentiated THP-1 cells were plated at a density of 20,000 cells per well in a 384-well plate (Poly-D-lysine coated Cell Carrier Ultra microplate, Perkin Elmer catalog #6057500) in complete growth media supplemented with 10 ng/ml phorbol 12-myristate 13-acetate (PMA; Sigma catalog #P8139), and then incubated overnight. The next day, media was replaced with assay media (RPMI (Gibco catalog #11875-093), 0.01% bovine serum albumin (BSA)). Compounds were serially diluted in DMSO and then added to wells one hour prior to the addition of 12.5 μg/ml Gramicidin (Enzo Lifescience, catalog #ALX-350-233-M005). All incubations were carried out at 37° C. (5% CO2/95% air). Following a 3-hour treatment with gramicidin, cells are fixed with 4% paraformaldehyde and stored at 4° C. until immunofluorescence staining.
Immunofluorescence staining: Anti-ASC antibody (MBL catalog #D086-3) was desalted and labeled with Alexa 488 antibody labeling kit (Thermo catalog #A20181) prior to use as described below. After fixation, the following steps were carried out at rt. Cells were first permeabilized with 0.3% polyethylene glycol tert-octylphenyl ether (Triton X-100) in phosphate-buffered saline (PBS) for 15 minutes and then incubated in blocking buffer containing 5% goat serum, 0.3% polyethylene glycol sorbitan monolaurate (Tween-20) and 0.03% sodium azide in PBS for 1 hour. Cells were stained with a mixture of ASC-Alexa 488 antibody (diluted 1:200 in blocking buffer) and nuclear stain DRAQ5 (1:5000 in blocking buffer, Thermo catalog #62251) in blocking buffer for 1 hour. Following a wash with 0.3% polyethylene glycol sorbitan monolaurate (Tween-20) in PBS, plates were imaged with an Opera Phenix High Content Screening System. The number of DRAQ5 positive cells containing ASC SPECKS were quantified in each well.
Data analysis: EC50 values were calculated by standard curve-fitting analysis using an internally developed program in TIBCO Spotfire software.

For the compound `CCN1CC(Cn2cc3ncc(-c4c(C)cc(C(F)(F)F)cc4O)nc3n2)CC1=O` (single isomer, unassigned) [Example 66, (R or S)-1-ethyl-4-((6-(2-hydroxy-6-methyl-4-(trifluoromethyl)phenyl)-2H-pyrazolo[3,4-b]pyrazin-2-yl)methyl)pyrrolidin-2-one], the half-maximal effective concentration (EC50) is 359 nM.
`CCN1CC(Cn2cc3ncc(-c4c(C)cc(C(F)(F)F)cc4O)nc3n2)CC1=O` (single isomer, unassigned) [Example 67, (S or R)-1-ethyl-4-((6-(2-hydroxy-6-methyl-4-(trifluoromethyl)phenyl)-2H-pyrazolo[3,4-b]pyrazin-2-yl)methyl)pyrrolidin-2-one]: the EC50 was determined as 7 nM.
Turning to `Cc1cc(C(F)(F)F)cc(O)c1-c1cnc2cn(C3CCc4nnn(C)c4C3)nc2n1` (single isomer, unassigned) [Example 68, (R or S)-3-methyl-2-(2-(1-methyl-4,5,6,7-tetrahydro-1H-benzo[d][1,2,3]triazol-6-yl)-2H-pyrazolo[3,4-b]pyrazin-6-yl)-5-(trifluoromethyl)phenol], the EC50 amounted to 40 nM.
For the compound `Cc1cc(C(F)(F)F)cc(O)c1-c1cnc2cn(C3CCc4nnn(C)c4C3)nc2n1` (single isomer, unassigned) [Example 69, (S or R)-3-methyl-2-(2-(1-methyl-4,5,6,7-tetrahydro-1H-benzo[d][1,2,3]triazol-6-yl)-2H-pyrazolo[3,4-b]pyrazin-6-yl)-5-(trifluoromethyl)phenol], the EC50 came out at 15 nM.
`Cc1cc(C(F)(F)F)cc(O)c1-c1cnc2cn(C3CCc4nnc(C(F)(F)F)n4C3)nc2n1` (single isomer, unassigned) [Example 70, (R or S)-3-methyl-5-(trifluoromethyl)-2-(2-(3-(trifluoromethyl)-5,6,7,8-tetrahydro-[1,2,4]triazolo[4,3-a]pyridin-6-yl)-2H-pyrazolo[3,4-b]pyrazin-6-yl)phenol]: the EC50 stood at 12 nM.
As to `Cc1cc(C(F)(F)F)cc(O)c1-c1cnc2cn(C3CCc4nnc(C(F)(F)F)n4C3)nc2n1` (single isomer, unassigned) [Example 71, (S or R)-3-methyl-5-(trifluoromethyl)-2-(2-(3-(trifluoromethyl)-5,6,7,8-tetrahydro-[1,2,4]triazolo[4,3-a]pyridin-6-yl)-2H-pyrazolo[3,4-b]pyrazin-6-yl)phenol], the EC50 came to 198 nM.
`CCc1nnc2n1CC(n1cc3ncc(-c4c(C)cc(C(F)(F)F)cc4O)nc3n1)CC2` (single isomer, unassigned) [Example 72, (R or S)-2-(2-(3-ethyl-5,6,7,8-tetrahydro-[1,2,4]triazolo[4,3-a]pyridin-6-yl)-2H-pyrazolo[3,4-b]pyrazin-6-yl)-3-methyl-5-(trifluoromethyl)phenol]: the EC50 came out at 20 nM.
As for `CCc1nnc2n1CC(n1cc3ncc(-c4c(C)cc(C(F)(F)F)cc4O)nc3n1)CC2` (single isomer, unassigned) [Example 73, (S or R)-2-(2-(3-ethyl-5,6,7,8-tetrahydro-[1,2,4]triazolo[4,3-a]pyridin-6-yl)-2H-pyrazolo[3,4-b]pyrazin-6-yl)-3-methyl-5-(trifluoromethyl)phenol], the concentration giving a half-maximal response (EC50) was 142 nM.
Consider `Cc1cc(C(F)(F)F)cc(O)c1-c1cnc2cn(C3(C)CC(F)C3)nc2n1` (single isomer, unassigned) [Example 74, 2-(2-((1R,3R or 1S,3S)-3-fluoro-1-methylcyclobutyl)-2H-pyrazolo[3,4-b]pyrazin-6-yl)-3-methyl-5-(trifluoromethyl)phenol], for which the EC50 was 66 nM.
The same measure for `Cc1cc(C(F)(F)F)cc(O)c1-c1cnc2cn(C3(C)CC(F)C3)nc2n1` (single isomer, unassigned) [Example 75, 2-(2-((1S,3S or 1R,3R)-3-fluoro-1-methylcyclobutyl)-2H-pyrazolo[3,4-b]pyrazin-6-yl)-3-methyl-5-(trifluoromethyl)phenol]: 262 nM.

One may read the EC50 as the concentration needed to bring the measured effect to its halfway point.
